Assay results: patent US12240840B2, “Amide-substituted heterocyclic compounds for the treatment of conditions related to the modulation of IL-12, IL-23 and/or IFN-alpha” (BRISTOL-MYERS SQUIBB COMPANY, priority 2018, dated 2025)

Each compound was assayed on IFNα-induced pSTAT5 (pY694) in CD3 positive cells of human whole blood (assay: IFNα-Induced STAT Phosphorylation in Human Whole Blood). Conditions: 1 h compound incubation, 1000 U/mL recombinant human IFNα A/D for 15 min, pSTAT5 in CD3 positive population, read-out: Human WB IFNα-Induced Stat Phosph. (IC50).
Format: cell-based
How it was run: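 Read-out is median fluorescence intensity of pSTAT5 (pY694) in the CD3-positive gate, by flow cytometry after fix/lyse and permeabilization. Before that, whole human blood anticoagulated with EDTA or ACD-A received compound for an hour and 1000 U/mL IFNα A/D for 15 min.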

Row | IC50 | Structure (SMILES)
1 | 290 nM | [2H]C([2H])([2H])NC(=O)c1cnc(NC(=O)C2CC2)cc1Nc1cccc(-c2ccn(CCNC(=O)COC)n2)c1OC [Example 472]

Same assay, conditions: Homo sapiens, 1 h compound incubation, 1000 U/mL recombinant human IFNα A/D for 15 min, pSTAT5 in CD3 positive population, read-out: Human WB IFNα-Induced Stat Phosph. (IC50)

Row | IC50 | Structure (SMILES)
2 | 30 nM | COc1c(Nc2cc(NC(=O)C3CC3)nnc2C(N)=O)cccc1-c1noc(CN(C)C)n1 [Example 63]
3 | 1830 nM | COC(=O)N1CCN(Cc2nc(-c3cccc(Nc4cc(N)nnc4C(N)=O)c3OC)no2)CC1 [Example 105]
4 | 290 nM | [2H]C([2H])([2H])NC(=O)c1nnc(NC(=O)C2CC2)cc1Nc1cccc(-c2nc(CC(=O)N3CCOCC3)no2)c1OC [Example 179]
5 | 25 nM | COc1c(Nc2cc(NC(=O)C3CC3)nnc2C(N)=O)cccc1-c1noc(CCS(C)(=O)=O)n1 [Example 71]
6 | 110 nM | COc1c(Nc2cc(NC(=O)C3CC3)nnc2C(N)=O)cccc1-c1noc(CS(C)(=O)=O)n1 [Example 64]
7 | 80 nM | [2H]C([2H])([2H])NC(=O)c1nnc(NC(=O)C2CC2)cc1Nc1cccc(-c2nc(C)c(C(=O)N3CCC(N(C)C)CC3)s2)c1OC [Example 354]
8 | 2240 nM | [2H]C([2H])([2H])NC(=O)c1nnc(NC(=O)C2CC2)cc1Nc1cccc(-c2ncc(CC(=O)NCC(O)CO)s2)c1OC (stereo not drawn) [Example 248]
9 | 240 nM | [2H]C([2H])([2H])NC(=O)c1nnc(NC(=O)C2CC2)cc1Nc1cccc(-c2nc(CN3CCN(S(C)(=O)=O)CC3=O)no2)c1OC [Example 141]
10 | 220 nM | [2H]C([2H])([2H])NC(=O)c1nnc(Nc2ccc(OCC)nn2)cc1Nc1cc(F)cc(-c2cc(C(C)(C)O)n(C)n2)c1OC [Example 545]
11 | 150 nM | [2H]C([2H])([2H])NC(=O)c1nnc(NC(=O)C2CC2)cc1Nc1cccc(-c2cc(C(=O)N3CCN(O)CC3)n(C)n2)c1OC [Example 478]
12 | 200 nM | [2H]C([2H])([2H])NC(=O)c1nnc(NC(=O)C2CC2)cc1Nc1cccc(-c2ncc(C(=O)NCCC(N)=O)s2)c1OC [Example 311]
13 | 12 nM | COc1c(Nc2cc(NC(=O)C3CC3)nnc2C(N)=O)cccc1-c1noc(CN2CCN(S(C)(=O)=O)CC2)n1 [Example 40]
14 | 200 nM | [2H]C([2H])([2H])NC(=O)c1nnc(NC(=O)C2CC2)cc1Nc1cccc(-c2ccn(CCNC(=O)CO)n2)c1OC [Example 467]
15 | 1080 nM | [2H]C([2H])([2H])NC(=O)c1nnc(NC(=O)C2CC2)cc1Nc1cccc(-c2nc(CNC(=O)CN3CCOCC3)no2)c1OC [Example 159]
16 | 770 nM | [2H]C([2H])([2H])NC(=O)c1nnc(NC(=O)C2CC2)cc1Nc1cccc(-c2cc(C(=O)NCC)n(C)n2)c1OC [Example 457]
17 | 1390 nM | [2H]C([2H])([2H])NC(=O)c1nnc(NC(=O)C2CC2)cc1Nc1cccc(-c2cc(C(=O)N3CCC(CCN4CCCC4)CC3)n(C)n2)c1OC [Example 541]
18 | 40 nM | [2H]C([2H])([2H])NC(=O)c1nnc(Nc2ccc(C)nn2)cc1Nc1cc(F)cc(-c2cc(C(=O)N(C)C)n(C)n2)c1OC [Example 555]
19 | 140 nM | COc1c(Nc2cc(NC(=O)C3CC3)nnc2C(N)=O)cccc1-c1noc([C@H](C)NS(C)(=O)=O)n1 [Example 46]
20 | 110 nM | [2H]C([2H])([2H])NC(=O)c1nnc(NC(=O)C2CC2)cc1Nc1cccc(-c2ncc(C(=O)N3CCC(CCOC)CC3)s2)c1OC [Example 325]
21 | 300 nM | [2H]C([2H])([2H])NC(=O)c1nnc(NC(=O)C2CC2)cc1Nc1cccc(-c2cnn(CCNC(C)=O)n2)c1OC [Example 432]
22 | 50 nM | [2H]C([2H])([2H])NC(=O)c1nnc(NC(=O)C2CC2)cc1Nc1cccc(-c2nc(CN3CC4CN(S(C)(=O)=O)CC4C3)no2)c1OC (stereo not drawn) [Example 235]
23 | 240 nM | [2H]C([2H])([2H])NC(=O)c1nnc(Nc2cc(C(C)(C)O)ccn2)cc1Nc1cc(F)cc(-c2cc(C(=O)N(C)C)n(C)n2)c1OC [Example 550]

Row | IC50 | Structure (SMILES)
24 | 250 nM | [2H]C([2H])([2H])NC(=O)c1nnc(NC(=O)C2CC2)cc1Nc1cccc(-c2cc(C(=O)N3CCN(C(=O)OC)CC3)n(C)n2)c1OC [Example 494]
25 | 5430 nM | [2H]C([2H])([2H])NC(=O)c1nnc(NC(=O)C2CC2)cc1Nc1cccc(-c2ncc(CC(=O)NCCC3CCCN3C)s2)c1OC (stereo not drawn) [Example 254]
26 | 50 nM | COc1c(Nc2cc(NC(=O)C3CC3)nnc2C(N)=O)cccc1-c1noc(CNS(=O)(=O)C2CC2)n1 [Example 49]
27 | 160 nM | [2H]C([2H])([2H])NC(=O)c1nnc(NC(=O)C2CC2)cc1Nc1cccc(-c2nc([C@H](N)CO)no2)c1OC [Example 221]
28 | 160 nM | [2H]C([2H])([2H])NC(=O)c1nnc(NC(=O)C2CC2)cc1Nc1cccc(-c2nc([C@@H](C)NC(C)=O)no2)c1OC [Example 194]
29 | 30 nM | [2H]C([2H])([2H])NC(=O)c1nnc(NC(=O)C2CC2)cc1Nc1cccc(-c2ncc(C(=O)NCC3CCN(C)C3)s2)c1OC (stereo not drawn) [Example 326]
30 | 3900 nM | [2H]C([2H])([2H])NC(=O)c1nnc(NC(=O)C2CC2)cc1Nc1cccc(-c2noc(CCC(=O)NCCC3CCCN3C)n2)c1OC (stereo not drawn) [Example 26]
31 | 150 nM | [2H]C([2H])([2H])NC(=O)c1nnc(NC(=O)C2CC2)cc1Nc1cccc(-c2ncc(C(C)(C)O)s2)c1OC [Example 267]
32 | 70 nM | [2H]C([2H])([2H])NC(=O)c1nnc(NC(=O)C2CC2)cc1Nc1cccc(-c2ncc(C(=O)NCC(C)CN(C)C)s2)c1OC (stereo not drawn) [Example 352]
33 | 60 nM | [2H]C([2H])([2H])NC(=O)c1nnc(NC(=O)C2CC2)cc1Nc1cccc(-c2cc(C(=O)N(C)C)n(C)n2)c1OC [Example 483]
34 | 220 nM | COc1c(Nc2cc(NC(=O)C3CC3)nnc2C(N)=O)cccc1-c1ncc(C(=O)NCC(O)CO)o1 (stereo not drawn) [Example 420]
35 | 70 nM | [2H]C([2H])([2H])NC(=O)c1nnc(NC(=O)C2CC2)cc1Nc1cccc(-c2ncc(C(=O)NCC(C)N3CCCCC3)s2)c1OC (stereo not drawn) [Example 349]
36 | 90 nM | COc1c(Nc2cc(NC(=O)C3CC3)nnc2C(N)=O)cccc1-c1ncc(CC(=O)N(C)C)s1 [Example 243]
37 | > 10000 nM | [2H]C([2H])([2H])NC(=O)c1nnc(NC(=O)C2CC2)cc1Nc1cccc(-c2nc(CC=C)no2)c1OC [Example 229]
38 | 790 nM | [2H]C([2H])([2H])NC(=O)c1nnc(NC(=O)C2CC2)cc1Nc1cccc(-c2nc(C(C)(C)O)no2)c1OC [Example 186]
39 | 50 nM | [2H]C([2H])([2H])NC(=O)c1nnc(NC(=O)C2CC2)cc1Nc1cccc(-c2ncc(C(=O)N3CC(N(C)C)C3)s2)c1OC [Example 334]
40 | 60 nM | COCc1nc(-c2cccc(Nc3cc(NC(=O)C4CC4)nnc3C(N)=O)c2OC)no1 [Example 67]
41 | 40 nM | COc1c(Nc2cc(NC(=O)C3CC3)nnc2C(N)=O)cccc1-c1noc(CN(C)S(=O)(=O)CC(F)(F)F)n1 [Example 55]
42 | 880 nM | [2H]C([2H])([2H])NC(=O)c1nnc(NC(=O)C2CC2)cc1Nc1cccc(-c2nc(C)c(C(=O)NCCCN(C)C)s2)c1OC [Example 357]
43 | 4620 nM | [2H]C([2H])([2H])NC(=O)c1nnc(NC(=O)C2CC2)cc1Nc1cccc(-c2ncc(CC(=O)NCCC3CCCN3C)o2)c1OC (stereo not drawn) [Example 412]
44 | 540 nM | [2H]C([2H])([2H])NC(=O)c1nnc(NC(=O)C2CC2)cc1Nc1cccc(-c2ncc(CN)s2)c1OC [Example 260]

Row | Structure (SMILES) | IC50
45 | [2H]C([2H])([2H])NC(=O)c1nnc(NC(=O)C2CC2)cc1Nc1cccc(-c2ncc(C(=O)N[C@H]3C[C@H]4CC[C@@H](C3)N4C)s2)c1OC [Example 338] | 420 nM
